Experiment [1] concerns the target T1, Muscarinic acetylcholine receptor M2 (Homo sapiens, UniProt P08172).
T1 sequence (P08172 whole entry): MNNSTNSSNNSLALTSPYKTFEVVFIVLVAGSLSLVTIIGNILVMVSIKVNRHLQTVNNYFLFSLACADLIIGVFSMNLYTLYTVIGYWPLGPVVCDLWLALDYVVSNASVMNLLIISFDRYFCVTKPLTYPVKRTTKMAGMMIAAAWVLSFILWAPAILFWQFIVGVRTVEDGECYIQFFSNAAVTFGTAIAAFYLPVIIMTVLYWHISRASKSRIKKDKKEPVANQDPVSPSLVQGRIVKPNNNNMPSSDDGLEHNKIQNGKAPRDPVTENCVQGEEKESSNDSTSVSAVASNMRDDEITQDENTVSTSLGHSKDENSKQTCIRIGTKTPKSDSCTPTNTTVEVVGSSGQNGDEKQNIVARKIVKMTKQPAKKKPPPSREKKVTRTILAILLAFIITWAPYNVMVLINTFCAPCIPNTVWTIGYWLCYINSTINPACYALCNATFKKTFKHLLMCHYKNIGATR
Put plainly: Binding affinity at human cloned acetylcholine receptor M2 in CHO cells. It counts as cell-based.

Experiment [2] concerns the target Muscarinic acetylcholine receptors; M2 & M3 (Homo sapiens) (UniProt P20309+P08172). Put plainly: Selectivity ratio for M3 muscarinic receptor compared to M2 muscarinic receptor. The experiment is classed as protein assay.
For experiment [3], the target named is Muscarinic acetylcholine receptors; M1 & M2 (Homo sapiens) (UniProt P11229+P08172). In words: Selectivity ratio for M1 muscarinic receptor compared to M2 muscarinic receptor. It counts as protein assay.

SMILES strings stand for the structures.

In general, Ki refers to a dissociation constant, usually derived from enzyme kinetics or from competition with a known ligand. A high value points to weaker binding.

Muscarinic acetylcholine receptors; M1 & M2 (Homo sapiens), sequence (P11229 whole entry, looked up, one chain of several): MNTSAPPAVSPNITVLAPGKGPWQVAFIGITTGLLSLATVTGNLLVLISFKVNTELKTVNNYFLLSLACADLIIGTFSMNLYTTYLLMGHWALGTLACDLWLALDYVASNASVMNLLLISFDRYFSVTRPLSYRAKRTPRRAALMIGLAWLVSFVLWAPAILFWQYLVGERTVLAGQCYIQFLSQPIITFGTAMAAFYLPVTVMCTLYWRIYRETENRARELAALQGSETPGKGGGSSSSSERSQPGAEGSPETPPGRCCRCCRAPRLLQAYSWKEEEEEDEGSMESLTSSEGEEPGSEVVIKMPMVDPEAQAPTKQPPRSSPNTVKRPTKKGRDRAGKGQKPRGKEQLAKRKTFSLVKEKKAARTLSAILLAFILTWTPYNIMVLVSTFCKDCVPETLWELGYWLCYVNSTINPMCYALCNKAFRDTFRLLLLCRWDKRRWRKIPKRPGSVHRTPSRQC

On to `CCOC(=O)N1CCC(N2CCC(C(=O)c3ccc(S(=O)(=O)c4ccc(OC)cc4)cc3)CC2)CC1`, for which the Ki in experiment [1] is 2.91 nM. Moreover, the Ratio in experiment [2] came out at 10.2; in experiment [3], 26.8.

For the compound `C=C(c1ccc(S(=O)(=O)c2ccc(OC)cc2)cc1)C1CCN(C2CCN(C(=O)OCC)CC2)CC1`, the affinity in experiment [1], expressed as Ki, was 0.07 nM. Moreover, the Ratio in experiment [2] came out at 21.9; in experiment [3], 68.3.

For `CCCS(=O)(=O)N1CCC(N2CCC(C3(c4ccc(S(=O)(=O)c5ccc6c(c5)OCO6)cc4)OCCO3)CC2)CC1`, the Ratio in experiment [2] was found to be 93; in experiment [3], 102.

In experiment [1], `CCCS(=O)(=O)N1CCC(N2CCC(C3(c4ccc(S(=O)(=O)c5ccc6c(c5)OCO6)cc4)SCCS3)CC2)CC1` returned an inhibition constant Ki of 0.031 nM. Also, the results for the Ratio in experiment [2] and in experiment [3] were 57.4 and 62.6, respectively.

Take `CCCS(=O)(=O)N1CCC(N2CCC(C3(c4ccc(S(=O)(=O)c5ccc6c(c5)OCO6)cc4)O[C@H](C)[C@@H](C)O3)CC2)CC1`: the inhibition constant Ki in experiment [1] came out at 1.22 nM. The results for the Ratio in experiment [2] and in experiment [3] were 46.1 and 8.7, respectively.

Turning to `CCOC(=O)N1CCC(N2CCC(C3(c4ccc(S(=O)(=O)c5ccc(OC)cc5)cc4)SCCS3)CC2)CC1`, the Ki in experiment [1] worked out at 0.11 nM. Also, the Ratio in experiment [2] amounted to 3; in experiment [3] it was 22.5.

In the case of `CCOC(=O)N1CCC(N2CCC(C3(c4ccc(S(=O)(=O)c5ccc(OC)cc5)cc4)SCCCS3)CC2)CC1`, in experiment [1], the Ki was 14.3 nM. For the same compound, the Ratio in experiment [2] was 2.9; in experiment [3], 4.4.

Compound `CCOC(=O)N1CCC(N2CCC(C3(c4ccc(S(=O)(=O)c5ccc(OC)cc5)cc4)OCCO3)CC2)CC1` came in with an inhibitory constant (Ki) in experiment [1] of 0.16 nM. The Ratio turned out to be 7.1 in experiment [2] and 28.3 in experiment [3].

In turn, `CCCS(=O)(=O)N1CCC(N2CCC(C3(c4ccc([S+]([O-])c5ccc6c(c5)OCO6)cc4)O[C@H](C)[C@@H](C)O3)CC2)CC1` (some centres undefined) returned a Ki in experiment [1] of 9.09 nM. Besides, the values for the Ratio in experiment [2] and in experiment [3] were 12.9 and 7.5, respectively.

As for `CCOC(=O)N1CCC(N2CCC(C3(c4ccc(S(=O)(=O)c5ccc6c(c5)OCO6)cc4)OCCO3)CC2)CC1`, in experiment [1], the Ki turned out to be 0.073 nM. Also, the Ratio worked out at 1.3 in experiment [2] and 4.1 in experiment [3].

In experiment [1], `CCCS(=O)(=O)N1CCC(N2CCC(C3(c4ccc([S+]([O-])c5ccc6c(c5)OCO6)cc4)CCCO3)CC2)CC1` (centres undefined) returned a Ki of 12.1 nM. The Ratio in experiment [2] turned out to be 0.5; in experiment [3], 0.49.

In experiment [1], `CCCS(=O)(=O)N1CCC(N2CCC(C3(c4ccc([S+]([O-])c5ccc6c(c5)OCO6)cc4)OCCO3)CC2)CC1` (centres undefined) displayed a Ki of 0.823 nM. Also, the Ratio in experiment [2] was 10; in experiment [3] it was 10.8.

In turn, `CCCS(=O)(=O)N1CCC(N2CCC(C3(c4ccc([S+]([O-])c5ccc6c(c5)OCO6)cc4)SCCS3)CC2)CC1` (centres undefined) gave a Ki in experiment [1] of 0.82 nM. The Ratio came to 12.8 in experiment [2] and 10.7 in experiment [3].

As to `CCOC(=O)N1CCC(N2CCC(C3(c4ccc(S(=O)(=O)c5ccc(OC)cc5)cc4)OCCCO3)CC2)CC1`, in experiment [1], the affinity corresponds to a Ki of 0.72 nM. Also, the Ratio turned out to be 14.4 in experiment [2] and 21 in experiment [3].

Take `CCCS(=O)(=O)N1CCC(N2CCC(C(=O)c3ccc([S+]([O-])c4ccc5c(c4)OCO5)cc3)CC2)CC1` (centres undefined): in experiment [1], the Ki was found to be 34.8 nM. Besides, the figures for the Ratio in experiment [2] and in experiment [3] were 11.8 and 4.6, respectively.

In experiment [1], `CCOC(=O)N1CCC(N2CCC(C3(c4ccc(S(=O)(=O)c5ccc6c(c5)OCO6)cc4)O[C@H](C)[C@@H](C)O3)CC2)CC1` yielded a Ki of 0.03 nM. In addition, the Ratio in experiment [2] stood at 46; in experiment [3] it was 21.7.

The compound `CCOC(=O)N1CCC(N2CCC(C(=O)c3ccc(S(=O)(=O)c4ccc5c(c4)OCO5)cc3)CC2)CC1` displayed a Ki in experiment [1] of 0.13 nM. The Ratio in experiment [2] worked out at 7.5; in experiment [3], 47.6.

As for `CCCS(=O)(=O)N1CCC(N2CCC(C(=O)c3ccc(S(=O)(=O)c4ccc5c(c4)OCO5)cc3)CC2)CC1`, in experiment [1], the affinity, expressed as Ki, was 1.02 nM. Further, the Ratio in experiment [2] was 93.4; in experiment [3] it was 42.6.

In experiment [1], `CCCS(=O)(=O)N1CCC(N2CCC(C3(c4ccc(S(=O)(=O)c5ccc6c(c5)OCO6)cc4)CCCO3)CC2)CC1` (centres undefined) came in with a Ki of 5.07 nM. Besides, the Ratio in experiment [2] was determined as 0.24; in experiment [3], 0.22.

In experiment [1], `CCOC(=O)N1CCC(N2CCC(C3(c4ccc(S(=O)(=O)c5ccc6c(c5)OCO6)cc4)O[C@@H](C)[C@H](C)O3)CC2)CC1` displayed a Ki of 1.82 nM. For the same compound, the Ratio in experiment [2] is 6.1; in experiment [3], 10.2.

These data come from ChEMBL document CHEMBL1132840, “Benzylidene ketal derivatives as M2 muscarinic receptor antagonists” (Bioorg Med Chem Lett, 2000).
